Values joined by “and” are separate entries in the source; they are usually repeats but may differ in a detail not shown here. Identical values can stand only once. Like-named read-outs stand apart in the source and are kept apart here.
What was measured:
[1] = test system: Ebola virus/H.sapiens-tc/GIN/2014/Makona-005 (EBOV/Mak); assay: microbe, parasite or virus in culture; assay type: cell-based; conditions: Zaire ebolavirus, HeLa
Chikungunya virus = assay: microbe, parasite or virus in culture; assay type: cell-based; conditions: Vero 76
HeLa cells = conditions: human
[2] = male, Hartley, guinea pig, in vivo
Hepatitis C virus = assay: microbe, parasite or virus in culture; assay type: cell-based; conditions: Huh-7
Vaccinia Virus = assay: microbe, parasite or virus in culture; assay type: cell-based; conditions: Orthopoxvirus vaccinia
[3] = guinea pig, microsomes
SARS-CoV-2 = assay: microbe, parasite or virus in culture; assay type: cell-based
Human cytomegalovirus = assay: microbe, parasite or virus in culture; assay type: cell-based; conditions: Human betaherpesvirus 5
[4] = test system: Vesicular Stomatitis Virus (VSV) pseudotyped with EBOV glycoprotein; assay: microbe, parasite or virus in culture; assay type: cell-based, Ebola virus; conditions: HeLa, read-out: IC50, inhibition of EBOV-VSV pseudovirus entry
Tacaribe virus = assay: microbe, parasite or virus in culture; assay type: cell-based; conditions: Mammarenavirus tacaribeense, Vero
[5] = guinea pig, pH 7.4
[6] = test system: Marburg virus/H.sapiens-tc/KEN/1980/Mt. Elgon-Musoke (MARV/Mus); assay: organism not typed; assay type: cell-based; conditions: HeLa
Hepatitis B virus = assay: microbe, parasite or virus in culture; assay type: cell-based; conditions: HepG2 2.2.15
[7] = human, microsomes
West Nile virus = assay: microbe, parasite or virus in culture; assay type: cell-based; conditions: Vero 76
in vitro [8] = conditions: mouse
Zika virus [9] = assay: microbe, parasite or virus in culture; assay type: cell-based; conditions: Vero 76
in vitro [10] = conditions: dog
Dengue Virus 2 = assay: microbe, parasite or virus in culture; assay type: cell-based; conditions: Vero 76
Yellow Fever virus = assay: microbe, parasite or virus in culture; assay type: cell-based; conditions: Vero 76
Nipah virus = assay: microbe, parasite or virus in culture; assay type: cell-based; conditions: Henipavirus nipahense, read-out: IC50 against Nipah virus
Zika virus [11] = assay: microbe, parasite or virus in culture; assay type: cell-based; conditions: Huh-7
Murine norovirus = assay: microbe, parasite or virus in culture; assay type: cell-based; conditions: Norwalk virus, RAW267.4
[12] = microsomes
Poliovirus 3 = assay: microbe, parasite or virus in culture; assay type: cell-based; conditions: Enterovirus C, Vero 76
[13] = human, microsomes, 1 h, pH 7.4
HepG2 2.2.15 = conditions: human
in vitro [14] = conditions: African green monkey
[15] = test system: Marburg virus/H.sapiens-tc/AGO/2005/Ang-1379v (MARV/Ang); assay: organism not typed; assay type: cell-based; conditions: HeLa
[16] = test system: Ebola virus/H.sapiens-tc/COD/1995/Kikwit-9510621 (EBOV/Kik); assay: microbe, parasite or virus in culture; assay type: cell-based; conditions: Zaire ebolavirus, HeLa
[17] = test system: murine hepatitis virus (MHV); assay: microbe, parasite or virus in culture; assay type: cell-based; conditions: Murine coronavirus, read-out: IC50 versus murine hepatitis virus (MHV)
Norovirus = assay: microbe, parasite or virus in culture; assay type: cell-based; conditions: HG23
[18] = test system: Venezuelian equine encephalitis virus; assay: microbe, parasite or virus in culture; assay type: cell-based; conditions: Venezuelan equine encephalitis virus, Vero 76
MERS coronavirus = assay: microbe, parasite or virus in culture; assay type: cell-based; conditions: Middle East respiratory syndrome-related coronavirus, Vero 76
[19] = test system: Respiratory synactial virus; assay: organism not typed; assay type: cell-based; conditions: MA104
[20] = mouse, microsomes
Ebola virus = assay: microbe, parasite or virus in culture; assay type: cell-based; conditions: Zaire ebolavirus, Vero 76
Influenza A virus H1N1 = assay: microbe, parasite or virus in culture; assay type: cell-based; conditions: H1N1, MDCK
[21] = test system: Ebola virus/H.sapiens-tc/COD/1976/Yambuku-Mayinga (EBOV/May); assay: microbe, parasite or virus in culture; assay type: cell-based; conditions: Zaire ebolavirus, HeLa

Which results are given for `COc1ccc2nc3cc(Cl)ccc3c(Nc3cc(CN4CCCC4)c(O)c(CN4CCCC4)c3)c2n1` [Pyronaridine, 4-[(7-Chloro-2-methoxybenzo[b][1,5]naph-thyridin-10-yl)amino]-2,6-bis(1-pyrrolidinylmethyl)phenol phosphate (1:4)]?
IC50 [1]: 0.82 ± 0.19 µM; EC50 (Chikungunya virus): 3.2 µM; CC50 (HeLa cells): 4.11 ± 0.5 µM; guinea pigs found dead on days 14 and 17 post dose ([2]; ip): 2 of 3; measurable plasma levels through ([2]; ip): 168 h; AUCinf Mean ([2]; ip, 125 mg/kg): 17,430 hr * ng/ml; AUClast Mean ([2]; ip, 125 mg/kg): 16,565 hr * ng/ml; Cmax Mean ([2]; ip, 125 mg/kg): 523 ng/mL; T1/2 ([2]; ip, 125 mg/kg): 72.7 h; measurable plasma levels through ([2]; po): 336 h; AUCinf Mean ([2]; po, 600 mg/kg): 58,783 hr * ng/ml; AUClast Mean ([2]; po, 600 mg/kg): 50,964 hr * ng/ml; Cmax Mean ([2]; po, 600 mg/kg): 1800 ng/mL; T1/2 ([2]; po, 600 mg/kg): 90.5 h; EC50 (Hepatitis C virus): 0.78 µM; EC90 (Hepatitis C virus): 1.71 µM; EC50 (Vaccinia Virus): > 1.2 µM; EC90 (Vaccinia Virus): > 1.2 µM; Clint [3]: 21.0; Dextromethorphan: compound, t1/2 normalized to dextromethorphan control [3]: 23.4; t1/2 [3]: 1.1 h; IC50 (SARS-CoV-2; Severe acute respiratory syndrome coronavirus 2, A549-ACE2, read-out: IC50 against SARS-CoV-2): < 0.2 µM; IC50 (SARS-CoV-2; read-out: IC50 against SARS-CoV-2): ~0.198 µM and 0.198 µM; EC50 (Human cytomegalovirus): > 1.2 µM; EC90 (Human cytomegalovirus): > 1.2 µM; IC50 [4]: 2.07 µM; EC50 (Tacaribe virus): > 3.2 µM; Relative Peak Area/Abundance GPLM [5]: 75.9%; IC50 [6]: 1.01 ± 0.11 µM; EC50 (Hepatitis B virus): 4.52 µM; EC90 (Hepatitis B virus): > 100 µM; Clint [7]: 11.4; Dextromethorphan: compound, t1/2 normalized to dextromethorphan control [7]: 6.2; t1/2 [7]: 2.037 h; EC50 (West Nile virus): > 24 µM; CC50 (in vitro [8]): > 40 µM; EC50 (Zika virus [9]): 3.2 µM; CC50 (in vitro [10]): 3.2 µM; EC50 (Dengue Virus 2): 3.2 µM; EC50 (Yellow Fever virus): 3.2 µM; IC50 (Nipah virus): 0.064 µM; EC50 (Zika virus [11]): 3.2 µM; EC50 (Murine norovirus): > 40 µM; EC90 (Murine norovirus): > 40 µM; Clint [12]: 15.5; Dextromethorphan: compound, t1/2 normalized to dextromethorphan control [12]: 16.7; t1/2 ([12]; monkey): 1.5 h; EC50 (Poliovirus 3): 3.2 µM; Relative Peak Area/Abundance HLM [13]: 85.9%; CC50 (HepG2 2.2.15): 3.54 µM; CC50 (in vitro [14]): 7.5 µM; IC50 [15]: 2.72 ± 0.97 µM; IC50 ([15]; read-out: IC50 range against two strains of Marburg virus): 1.01 to 2.72 µM; IC50 [16]: 1.3 ± 0.42 µM; IC50 ([16]; read-out: IC50 range against three strains of EBOV): 0.82 to 1.3 µM; IC50 [17]: 2.75 µM; EC50 (Norovirus): 3.5 µM; EC90 (Norovirus): 9.7 µM; EC50 [18]: 1.8 µM; EC50 (MERS coronavirus): 3.2 µM; EC50 [19]: > 7.5 µM; Clint [20]: <7.4; Dextromethorphan: compound, t1/2 normalized to dextromethorphan control [20]: >11.5; t1/2 [20]: >3.1 h; EC50 (Ebola virus): > 1.3 µM; EC50 (Influenza A virus H1N1): 3.2 µM; IC50 [21]: 1.01 ± 0.58 µM

— patent publication US11696914B1 (priority 2019, dated 2023)
